Patent US20250136650A1, “COMPOSITIONS AND METHODS FOR DNA BINDING AND TRANSCRIPTIONAL REGULATION” (THE UNIVERSITY OF CHICAGO, priority 2021, published 2025)
Entries after “also recorded” stand apart in the source; their conditions may differ.

Tests used:
MDA-MB-231 cells = assay: Boyden chamber invasion, MDA-MB-231; format: cell-based, human; settings: MDA-MB-231, 20 μM, 24 hours, hypoxia
Method: Boyden Chamber Invasion Assay. Each Boyden chamber membrane (Fisher Scientific, 353097) was coated with a thin layer of Basement Membrane Extract (BME, 200 μl of 0.25 mg/ml stock; 50 μg total BME per membrane) and incubated at 37° C. for 1 hr. Cells were trypsinized, neutralized in 10% FBS DMEM media, and centrifuged at 500×g for 5 min followed by two rounds of PBS washes to remove remaining serum-containing media. Cells were then resuspended in serum-free media and diluted to the desired concentration for plating onto the Boyden chamber. 1×10^6 MDA-MB-231 cells in 300 μL serum-free media were plated on each Boyden chamber. 500 μL of 10% FBS DMEM media was placed in the lower well, acting as the chemoattractant. Serum-free media placed in the lower wells served as negative controls. Treated cells were plated in 20 μM of STR22. After a 24 hr incubation, the membranes were stained with Calcein AM (Fisher Scientific, 354217) for 1 hr at 37° C. to stain for live cells. The tops of the chambers were swabbed to remove remaining cells, and cells on the bottom of the chamber were dissociated from the membrane by incubating in cell dissociated buffer (R&D Systems, 3455-05-03) in a shaker at 37° C. for 1 hr. Calcein AM signal was measured in Perkin Elmer Victor X3 plate reader as a read-out of invaded cells.

XBP1 = assay: XBP1-driven luciferase reporter, tunicamycin induced; format: cell-based, human; settings: HeLa, STR22 1.25-20 μM
Method: HeLa cells were co-transfected with XBP1 transcriptionally driven luciferase plasmid and renilla plasmid. 6 hours after transfection, cells were treated for 12 hours with tunicamycin at 500 ng/mL and either STR22 at varying concentrations (20, 10, 5, 2.5, 1.25 μM) or KIRA8 at 10 μM.
(§1) Luciferase Assays. Approximately 2×10^4 HeLa cells were seeded in the each well of a 96-well plate. Cells were co-transfected with 3×UPRE-luc (Addgene, 101788) and XBP1s overexpression construct or control vector using Lipofectamine 3000 (Invitrogen) for 4 hrs, which was then followed by treatment with STR22 for 24 hrs. Cells were then lysed in diluted cell culture lysis 5× buffer (Promega). 1× luciferase reagents (1 mM D-luciferin, 3 mM ATP, 15 mM MgSO4, 30 mM HEPES pH=7.8) were then added and the mixtures were read for luminescence. For hypoxia response experiments, cells were transfected with 5×HRE-luc (PGK1-derived HRE promoter, Addgene, 128095) vector using Lipofectamine 3000 (Invitrogen) for 4 hrs and then treated with STR22 under 1% 02 (hypoxia) for 24 hrs. Luminescence was read following the aforementioned protocol.

[1] = tested on: SUM159 cells, HRE-regulated genes; assay: qPCR of hypoxia-induced genes, SUM159; format: cell-based; settings: SUM159, 20 μM, 24 hours
Method: Real-Time PCR. mRNA was extracted using RNeasy plus Mini Kit (Qiagen). 1.5 μg mRNA sample was reverse transcribed into cDNA using a reverse transcription kit (Invitrogen A48570) and then subjected to SYBR-green based real-time PCR analysis (Invitrogen A25741). Primers used: […]

[2] = tested on: HRE-regulated luciferase reporter; assay: 5xHRE-regulated luciferase reporter under hypoxia; format: cell-based, human; settings: HeLa, 1% O2, 24 hours
Method: as §1

FLAG-XBP1s = assay: Western blot of FLAG-XBP1s; format: cell-based, human; settings: HeLa, 20 μM
Method: Immunoblotting. Following indicated treatments, cells were first washed with ice-cold PBS. Whole-cell extracts were prepared by directly lysing cells with Laemmli sample buffer (Bio-rad, 1610747) supplemented with 2-Mercaptoethanol (Gibco, 21985023), protease inhibitor (Roche, 4693159001), PMSF (Roche, 10837091001) and phosphatase inhibitor (GB-450) at 4° C. Finally, protein samples were boiled at 95° C. for 5 mins. Western blotting was performed using antibodies for XBP1 (Biolegend, 9D11A43), HIF1α (Novus Biologicals, NB100-479), GAPDH (Santa Cruz Biotech, sc-32233) and α-tubulin (Invitrogen, MA1-19401) were used. Blots were imaged using Li—COR Odyssey Fc.

## XBP1-derived stapled dimer: RRK^KNR^AAQTARDRKKA#LSELEQQVVDLE linked to RRK^KNR^AAQTARDRKKARLSEL#QQVVDLE; FIG. 27 [STR22]
MDA-MB-231 cells
  cell invasion: significantly inhibited cell invasion
XBP1
  tunicamycin-induced luciferase expression: inhibited tunicamycin-induced luciferase expression at all concentrations shown; also recorded: abrogated this induction
[1]
  hypoxia-induced gene expression (qPCR): inhibited this induction
[2]
  hypoxia-induced HRE-regulated luciferase expression: blocked this induction with potency equivalent to that observed in UPRE-reporter studies
FLAG-XBP1s
  FLAG-XBP1s protein levels: did not affect FLAG-XBP1s protein levels
